Assay results published in patent publication US9643955B2, “2-pyridyloxy-3-nitrile-4-substituted orexin receptor antagonists” (MERCK SHARP & DOHME CORP., priority 2012, dated 2017).

How the values were obtained:
[1] = biological target: T1, hOX1R (Homo sapiens, UniProt O43613); test: FLIPR Ca2+ Flux Assay, hOX1R; type: cell-based; parameters: expressed in transfected cells; host or cells: CHO cells; settings: CHO cells expressing orexin-1 receptor; agonist 70 pM Ala-6,12 orexin-A
T1 sequence (O43613 1-425): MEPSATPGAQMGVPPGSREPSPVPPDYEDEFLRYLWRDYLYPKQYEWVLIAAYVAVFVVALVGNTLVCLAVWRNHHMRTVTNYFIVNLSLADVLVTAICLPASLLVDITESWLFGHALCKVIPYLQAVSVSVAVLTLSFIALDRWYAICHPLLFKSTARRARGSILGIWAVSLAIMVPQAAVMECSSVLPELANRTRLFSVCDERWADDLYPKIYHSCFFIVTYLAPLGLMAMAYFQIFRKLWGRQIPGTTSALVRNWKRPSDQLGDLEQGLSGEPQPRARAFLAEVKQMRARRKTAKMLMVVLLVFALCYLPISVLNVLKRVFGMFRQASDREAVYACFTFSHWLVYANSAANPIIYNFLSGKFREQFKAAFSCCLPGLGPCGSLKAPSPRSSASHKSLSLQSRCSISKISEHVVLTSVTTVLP

[2] = biological target: T2, human orexin-2 receptor (Homo sapiens, UniProt O43614); test: FLIPR Ca2+ Flux Assay, hOX2R; type: cell-based; settings: CHO cells expressing the human orexin-2 receptor; agonist 70 pM Ala-6,12 orexin-A
T2 construct: expressed in transfected cells; host or cells: CHO cells
T2 sequence (O43614 1-444): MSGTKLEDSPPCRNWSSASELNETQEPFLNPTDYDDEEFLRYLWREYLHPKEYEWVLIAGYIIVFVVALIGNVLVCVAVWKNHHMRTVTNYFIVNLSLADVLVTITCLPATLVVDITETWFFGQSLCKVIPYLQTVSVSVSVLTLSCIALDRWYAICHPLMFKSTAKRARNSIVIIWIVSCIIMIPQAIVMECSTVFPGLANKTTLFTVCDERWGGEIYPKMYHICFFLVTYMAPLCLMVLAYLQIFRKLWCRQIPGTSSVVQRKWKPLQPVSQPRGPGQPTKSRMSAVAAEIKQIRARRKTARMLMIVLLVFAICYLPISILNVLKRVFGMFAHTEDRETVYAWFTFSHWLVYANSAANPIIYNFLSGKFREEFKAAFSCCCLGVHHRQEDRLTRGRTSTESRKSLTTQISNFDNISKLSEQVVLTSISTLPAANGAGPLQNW
Procedure: The utility of the compounds in accordance with the present invention as orexin receptor OX1R and/or OX2R antagonists may be readily determined without undue experimentation by methodology well known in the art, including the “FLIPR Ca^2+ Flux Assay” (Okumura et al., Biochem. Biophys. Res. Comm. 280:976-981, 2001). In a typical experiment the OX1 and OX2 receptor antagonistic activity of the compounds of the present invention was determined in accordance with the following experimental method. For intracellular calcium measurements, Chinese hamster ovary (CHO) cells expressing the rat orexin-1 receptor or the human orexin-2 receptor, are grown in Iscove's modified DMEM containing 2 mM L-glutamine, […], 1% hypoxanthine-thymidine supplement, 100 U/ml penicillin, 100 μg/ml streptomycin and 10% heat-inactivated fetal calf serum (FCS). The cells are seeded at 20,000 cells/well into Becton-Dickinson black 384-well clear bottom sterile plates coated with poly-D-lysine. All reagents were from GIBCO-Invitrogen Corp. The seeded plates are incubated overnight at 37° C. and 5% CO2. Ala-6,12 human orexin-A as the agonist is prepared as a 1 mM stock solution in 1% bovine serum albumin (BSA) and diluted in assay buffer (HBSS containing 20 mM HEPES, 0.1% BSA and 2.5 mM probenecid, pH7.4) for use in the assay at a final concentration of 70 pM. Test compounds are prepared as 10 mM stock solution in DMSO, then diluted in 384-well plates, first in DMSO, then assay buffer. On the day of the assay, cells are washed 3 times with 100 μl assay buffer and then incubated for 60 min (37° C., 5% CO2) in 60 μl assay buffer containing 1 μM Fluo-4AM ester, 0.02% pluronic acid, and 1% BSA. The dye loading solution is then aspirated and cells are washed 3 times with 100 μl assay buffer. 30 μl of that same buffer is left in each well. Within the Fluorescent Imaging Plate Reader (FLIPR, Molecular Devices), test compounds are added to the plate in a volume of 25 μl, incubated for 5 min and finally 25 μl of agonist is added. Fluorescence is measured for each well at 1 second intervals for 5 minutes and the height of each fluorescence peak is compared to the height of the fluorescence peak induced by 70 pM Ala-6,12 orexin-A with buffer in place of antagonist. For each antagonist, IC50 value (the concentration of compound needed to inhibit 50% of the agonist response) is determined Alternatively, compound potency can be assessed by a radioligand binding assay (described in Bergman et. al. Bioorg. Med. Chem. Lett. 2008, 18, 1425-1430) in which the inhibition constant (Ki) is determined in membranes prepared from CHO cells expressing either the OX1 or OX2 receptor. The intrinsic orexin receptor antagonist activity of a compound which may be used in the present invention may be determined by these assays.

[3] = biological target: T1, hOX1R; test: radioligand binding assay, hOX1R; parameters: expressed in transfected cells; host or cells: membranes of CHO cells; settings: membranes prepared from CHO cells expressing the OX1 receptor; read-out: hOX1R BIND hKi
Procedure: (§1) The utility of the compounds in accordance with the present invention as orexin receptor OX1R and/or OX2R antagonists may be readily determined without undue experimentation by methodology well known in the art, including the “FLIPR Ca^2+ Flux Assay” (Okumura et al., Biochem. Biophys. Res. Comm. 280:976-981, 2001). In a typical experiment the OX1 and OX2 receptor antagonistic activity of the compounds of the present invention was determined in accordance with the following experimental method. For intracellular calcium measurements, Chinese hamster ovary (CHO) cells expressing the rat orexin-1 receptor or the human orexin-2 receptor, are grown in Iscove's modified DMEM containing 2 mM L-glutamine, […], 1% hypoxanthine-thymidine supplement, 100 U/ml penicillin, 100 μg/ml streptomycin and 10% heat-inactivated fetal calf serum (FCS). The cells are seeded at 20,000 cells/well into Becton-Dickinson black 384-well clear bottom sterile plates coated with poly-D-lysine. All reagents were from GIBCO-Invitrogen Corp. The seeded plates are incubated overnight at 37° C. and 5% CO2. Ala-6,12 human orexin-A as the agonist is prepared as a 1 mM stock solution in 1% bovine serum albumin (BSA) and diluted in assay buffer (HBSS containing 20 mM HEPES, 0.1% BSA and 2.5 mM probenecid, pH7.4) for use in the assay at a final concentration of 70 pM. Test compounds are prepared as 10 mM stock solution in DMSO, then diluted in 384-well plates, first in DMSO, then assay buffer. On the day of the assay, cells are washed 3 times with 100 μl assay buffer and then incubated for 60 min (37° C., 5% CO2) in 60 μl assay buffer containing 1 μM Fluo-4AM ester, 0.02% pluronic acid, and 1% BSA. The dye loading solution is then aspirated and cells are washed 3 times with 100 μl assay buffer. 30 μl of that same buffer is left in each well. Within the Fluorescent Imaging Plate Reader (FLIPR, Molecular Devices), test compounds are added to the plate in a volume of 25 μl, incubated for 5 min and finally 25 μl of agonist is added. Fluorescence is measured for each well at 1 second intervals for 5 minutes and the height of each fluorescence peak is compared to the height of the fluorescence peak induced by 70 pM Ala-6,12 orexin-A with buffer in place of antagonist. […] The intrinsic orexin receptor antagonist activity of a compound which may be used in the present invention may be determined by these assays.

[4] = biological target: T3, hOX2R (Homo sapiens, UniProt O43614); test: radioligand binding assay, hOX2R; settings: membranes prepared from CHO cells expressing the OX2 receptor; read-out: hOX2R BIND hKi
T3 construct: expressed in transfected cells; host or cells: membranes of CHO cells
T3 sequence (O43614 1-444): T2 sequence (O43614 1-444)
Procedure: as §1

Row | IC50 [1] [nM] | IC50 [2] [nM] | Ki [3] [nM] | Ki [4] [nM] | SMILES
1 | 3710 | 73.6 |  |  | Cc1ccnc(O[C@@H]2CC[C@@H](C)N(C(=O)c3ccc(Cl)cc3-n3nccn3)C2)c1C#N [Example 3, 2-{[(3R,6R)-1-{[4-Chloro-2(2H-1,2,3-triazol-2-yl)phenyl]carbonyl}-6-methylpiperidin-3-yl]oxy}-4-methylpyridine-3-carbonitrile]
2 |  |  | 3610 | 34 | Cc1ccnc(O[C@@H]2CC[C@@H](C)N(C(=O)c3c(F)cccc3-n3nccn3)C2)c1C#N [Example 5, 2-{[(3R,6R)-1-{[2-fluoro-6-(2H-1,2,3-triazol-2-yl)phenyl]carbonyl}-6-methylpiperidin-3-yl]oxy}-4-methylpyridine-3-carbonitrile]
3 |  |  | 5660 | 60 | COc1ccc(C(=O)N2C[C@H](Oc3nccc(C)c3C#N)CC[C@H]2C)c(-n2nccn2)c1 [Example 9, 2-{[(3R,6R)-1-{[4-methoxy-2-(2H-1,2,3-triazol-2-yl)phenyl]carbonyl}-6-methylpiperidin-3-yl]oxy}-4-methylpyridine-3-carbonitrile]
4 | 3650 | 42.6 |  |  | Cc1ccnc(O[C@@H]2CC[C@@H](C)N(C(=O)c3cccc(F)c3-n3nccn3)C2)c1C#N [Example 10, 2-{[(3R,6R)-1-{[3-fluoro-2-(2H-1,2,3-triazol-2-yl)phenyl]carbonyl}-6-methylpiperidin-3-yl]oxy}-4-methylpyridine-3-carbonitrile]
5 |  |  | 7 | 24 | Cc1ccc(-n2nccn2)c(C(=O)N2C[C@H](Oc3nccc(C)c3C#N)CC[C@H]2C)c1 [Example 11, 4-methyl-2-{[(3R,6R)-6-methyl-1-{[5-methyl-2-(2H-1,2,3-triazol-2-yl)phenyl]carbonyl}piperidin-3-yl]oxy}pyridine-3-carbonitrile]

The next lines start with the compound.

Row | SMILES | IC50 [1] [nM] | IC50 [2] [nM] | Ki [3] [nM] | Ki [4] [nM]
6 | CSc1ccnc(O[C@@H]2CC[C@@H](C)N(C(=O)c3ccccc3-n3nccn3)C2)c1C#N [Example 1, 4-(Methylsulfanyl)-2-{[(3R,6R)-6-methyl-1-{[2-(2H-1,2,3-triazol-2-yl)phenyl]carbonyl}-piperidin-3-yl]oxy}pyridine-3-carbonitrile] | 7440 | 39 |  | 
7 | Cc1ccnc(O[C@@H]2CC[C@@H](C)N(C(=O)c3ccccc3-n3nccn3)C2)c1C#N [Example 2, 4-Methyl-2{[(3R,6R)-6-methyl-1-{[2-(2H-1,2,3-triazol-2-yl)phenyl]carbonyl}piperidin-3-yl]oxy}pyridine-3-carbonitrile] | 464 | 9.8 |  | 
8 | Cc1ccnc(O[C@@H]2CC[C@@H](C)N(C(=O)c3cnccc3-n3nccn3)C2)c1C#N [Example 4, 4-methyl-2-{[(3R,6R)-6-methyl-1-{[4-(2H-1,2,3-triazol-2-yl)pyridin-3-yl]carbonyl}piperidin-3-yl]oxy}pyridine-3-carbonitrile] |  |  | 1290 | 54
9 | COc1cccc(-n2nccn2)c1C(=O)N1C[C@H](Oc2nccc(C)c2C#N)CC[C@H]1C [Example 6, 2-{[(3R,6R)-1-{[2-methoxy-6-(2H-1,2,3-triazol-2-yl)phenyl]carbonyl}-6-methylpiperidin-3-yl]oxy}-4-methylpyridine-3-carbonitrile] | 1160 | 67.6 |  | 
10 | Cc1ccnc(O[C@@H]2CC[C@@H](C)N(C(=O)c3cccc(C)c3-n3nccn3)C2)c1C#N [Example 7, 4-methyl-2-{[(3R,6R)-6-methyl-1-{[3-methyl-2-(2H-1,2,3-triazol-2-yl)phenyl]carbonyl}piperidin-3-yl]oxy}pyridine-3-carbonitrile] | 457 | 20.3 |  | 
11 | Cc1ccnc(O[C@@H]2CC[C@@H](C)N(C(=O)c3ccc(F)cc3-n3nccn3)C2)c1C#N [Example 8, 2-{[(3R,6R)-1-{[4-fluoro-2-(2H-1,2,3-triazol-2-yl)phenyl]carbonyl}-6-methylpiperidin-3-yl]oxy}-4-methylpyridine-3-carbonitrile] | 7390 | 59.8 |  | 
12 | COc1ccc(C(=O)N2C[C@H](Oc3nccc(C)c3C#N)CC[C@H]2C)c(-n2nccn2)n1 [Example 12, 2-{[(3R,6R)-1-{[6-methoxy-2-(2H-1,2,3-triazol-2-yl)pyridin-3-yl]carbonyl}-6-methylpiperidin-3-yl]oxy}-4-methylpyridine-3-carbonitrile] | 10000 | 280 |  | 
